The series relates to CCRIS mutagenicity, Ames/micronucleus/aberration tests. The experiment in a line: CCRIS mutagenicity studies.
[1] abbreviates: Test System: AMES SALMONELLA TYPHIMURIUM, Strain/Indicator: TA98, Metabolic Activation: RAT, LIVER, S-9, PHENOBARBITAL, Method: STANDARD PLATE.

Activity calls are given as the source filed them. The rule behind the calls is not given here.

For `C=C(C)CN(CC)c1c([N+](=O)[O-])cc(C(F)(F)F)cc1[N+](=O)[O-]`, the mutagenic call runs as follows: (End Point: In vitro chromasomal aberrations, Test System: Chinese hamster ovary (CHO) cells, Metabolic Activation: None) “inactive; negative”; (Test System: Ames Salmonella typhimurium, Strain/Indicator: TA98, Metabolic Activation: None, Method: Plate incorporation) “inactive; negative”; (Test System: Ames Salmonella typhimurium, Strain/Indicator: TA98, Metabolic Activation: Rat, Liver, S-9, Aroclor, Method: Plate incorporation) “inactive; negative”; (Test System: Ames Salmonella typhimurium, Strain/Indicator: TA100, Metabolic Activation: None, Method: Plate incorporation) “inactive; negative”; (Test System: Ames Salmonella typhimurium, Strain/Indicator: TA100, Metabolic Activation: Rat, Liver, S-9, Aroclor, Method: Plate incorporation) “active; positive (weak response)”; (Test System: Ames Salmonella typhimurium, Strain/Indicator: TA1535, Metabolic Activation: None, Method: Plate incorporation) “inactive; negative”. The mutagenic call is “active; positive (weak response)” (Test System: Ames Salmonella typhimurium, Strain/Indicator: TA1535, Metabolic Activation: Rat, Liver, S-9, Aroclor, Method: Plate incorporation); “inactive; negative” (Test System: Ames Salmonella typhimurium, Strain/Indicator: TA1537, Metabolic Activation: None, Method: Plate incorporation); “inactive; negative” (Test System: Ames Salmonella typhimurium, Strain/Indicator: TA1537, Metabolic Activation: Rat, Liver, S-9, Aroclor, Method: Plate incorporation); “inactive; negative” (Test System: Ames Salmonella typhimurium, Strain/Indicator: TA1538, Metabolic Activation: None, Method: Plate incorporation); “inactive; negative” (Test System: Ames Salmonella typhimurium, Strain/Indicator: TA1538, Metabolic Activation: Rat, Liver, S-9, Aroclor, Method: Plate incorporation).

Consider `Cc1ccc2cc3c(ccc4ccccc43)c3c2c1CC3`, for which the mutagenic call (End Point: In vivo mutagenicity, Test System: Lung, Species: Rat, Strain/Sex: Big Blue/male, Route: Intraperitoneal) was “active; positive (11-fold increase in mutant frequency and an increase in transversion t”; the mutagenic call (Test System: AMES SALMONELLA TYPHIMURIUM, Strain/Indicator: TA98, Metabolic Activation: RAT, BLADDER, S-9, PCB, Method: FLUCTUATION TEST) is “inactive; negative”; the mutagenic call under setting [1] is “active; positive”; the mutagenic call (Test System: AMES SALMONELLA TYPHIMURIUM, Strain/Indicator: TA100, Metabolic Activation: MOUSE, LIVER, MICROSOMES, BENZO[E]PYRENE AND TCDD, Method: STANDARD PLATE) is “active; positive”; the mutagenic call (Test System: AMES SALMONELLA TYPHIMURIUM, Strain/Indicator: TA100, Metabolic Activation: RAT, BLADDER, S-9, PCB, Method: FLUCTUATION TEST) was “active; positive”; the mutagenic call (Test System: AMES SALMONELLA TYPHIMURIUM, Strain/Indicator: TA100, Metabolic Activation: RAT, LIVER, S-9, AROCLOR 1254, Method: STANDARD PLATE) is “active; positive”. Further, the mutagenic call is “active; positive” (Test System: AMES SALMONELLA TYPHIMURIUM, Strain/Indicator: TA1535, Metabolic Activation: RAT, LIVER, S-9, AROCLOR 1254, Method: STANDARD PLATE); “active; positive” (Test System: AMES SALMONELLA TYPHIMURIUM, Strain/Indicator: TA1537, Metabolic Activation: RAT, LIVER, S-9, AROCLOR 1254, Method: STANDARD PLATE); “active; positive” (Test System: AMES SALMONELLA TYPHIMURIUM, Strain/Indicator: TA1538, Metabolic Activation: MOUSE, LIVER, S-9, PHENOBARBITAL, Method: PREINCUBATION); “active; positive” (Test System: AMES SALMONELLA TYPHIMURIUM, Strain/Indicator: TA1538, Metabolic Activation: RAT, LIVER, S-9, AROCLOR 1254, Method: STANDARD PLATE); “active; positive” (Test System: AMES SALMONELLA TYPHIMURIUM, Strain/Indicator: TA1538, Metabolic Activation: RAT, LIVER, S-9, PHENOBARBITAL, Method: STANDARD PLATE); “active; positive (animals administered an onion (1% or 5%) diet for 1 month before the m” (Test System: Ames Salmonella typhimurium, Strain/Indicator: TA98, Metabolic Activation: None, Method: Standard plate). The mutagenic call is “active; positive (animals administered an onion (1% or 5%) diet for 1 month before the m” (Test System: Ames Salmonella typhimurium, Strain/Indicator: TA98, Metabolic Activation: S-9, Method: Standard plate); “active; positive (animals administered an onion (1% or 5%) diet for 1 month before the m” (Test System: Ames Salmonella typhimurium, Strain/Indicator: TA100, Metabolic Activation: None, Method: Standard plate); “active; positive (animals administered an onion (1% or 5%) diet for 1 month before the m” (Test System: Ames Salmonella typhimurium, Strain/Indicator: TA100, Metabolic Activation: S-9, Method: Standard plate); “active; positive” (Test System: CHINESE HAMSTER OVARY, Strain/Indicator: CHO-K1-BH4 (HGPRT), Metabolic Activation: RAT, LIVER, S-9, AROCLOR, Method: SUSPENSION/PLATE); “active; positive” (Test System: CHINESE HAMSTER V-79, Strain/Indicator: V-79/6-THIOGUANINE, Metabolic Activation: RAT, LIVER, S-9, PHENOBARBITAL, Method: STANDARD PLATE); “active; positive” (Test System: CHINESE HAMSTER V-79, Strain/Indicator: V-79/8-AZAGUANINE, Metabolic Activation: CELL-MEDIATED, Method: STANDARD PLATE). Also, the mutagenic call was “inactive; negative” (Test System: E. COLI, Strain/Indicator: WP2 UVRA, Metabolic Activation: HAMSTER, LIVER, S-9, AROCLOR 1254, Method: STANDARD PLATE); “inactive; negative” (Test System: E. COLI, Strain/Indicator: WP2 UVRA, Metabolic Activation: HAMSTER, LIVER, S-9, Method: STANDARD PLATE); “inactive; negative” (Test System: E. COLI, Strain/Indicator: WP2 UVRA, Metabolic Activation: MOUSE, LIVER, S-9, AROCLOR 1254, Method: STANDARD PLATE); “inactive; negative” (Test System: E. COLI, Strain/Indicator: WP2 UVRA, Metabolic Activation: MOUSE, LIVER, S-9, Method: STANDARD PLATE); “inactive; negative” (Test System: E. COLI, Strain/Indicator: WP2 UVRA, Metabolic Activation: NONE, Method: STANDARD PLATE); “inactive; negative” (Test System: E. COLI, Strain/Indicator: WP2 UVRA, Metabolic Activation: RAT, LIVER, S-9, AROCLOR 1254, Method: STANDARD PLATE). The mutagenic call is, setting by setting: (Test System: E. COLI, Strain/Indicator: WP2 UVRA, Metabolic Activation: RAT, LIVER, S-9, Method: STANDARD PLATE) “inactive; negative”; (Test System: UDS HUMAN FIBROBLASTS, Strain/Indicator: THY INCORP (NON-S-PHASE), Metabolic Activation: NONE, Method: LIQUID SCINTILLATION COUNTING) “active; positive”; (Test System: UDS RODENT HEPATOCYTES, Strain/Indicator: THY INCORP (NON-S-PHASE), Method: LIQUID SCINTILLATION COUNTING) “active; positive”; (Test System: UDS RODENT PRIMARY CELLS, Strain/Indicator: THY INCORP (NON-S-PHASE), Metabolic Activation: NONE, Method: AUTORADIOGRAPHY) “active; positive”.

`O=c1c2c(O)cccc2oc2cc3c(c(O)c12)[C@@H]1C=CO[C@@H]1O3`: the mutagenic call runs as follows: under setting [1], “inactive; negative”; (Test System: AMES SALMONELLA TYPHIMURIUM, Strain/Indicator: TA100, Metabolic Activation: RAT, LIVER, S-9, PHENOBARBITAL, Method: STANDARD PLATE) “inactive; negative”.
